Assay results taken from PMC11940343, “In Vitro and In Vivo Evaluation of the De Novo Designed Antimicrobial Peptide P6.2 Against a KPC-Producing P. aeruginosa Clinical Isolate” (Biomolecules, 2025).
No end group written: not given here.

What was measured:
[1] = system: P. aeruginosa strain PA01; conditions: mice challenged with P. aeruginosa PA01; ref previous work; cited from earlier work
Text: The antimicrobial peptide P6.2 was previously de novo designed as an alpha helix cationic amphipathic molecule. […] In this work, the peptide P6.2 antimicrobial activity and its possible synergy with ...

P. aeruginosa M13513 = assay: Eradication of pre-formed biofilm and cell viability (crystal violet, MTT, CLSM); format: cell-based, Pseudomonas aeruginosa; conditions: 1xMIC to 8xMIC
Procedure: Biofilms of P. aeruginosa M13513 were grown in 96-well flat-bottom polystyrene plates using CAMHB for 24 h. Once the biofilms were established, the supernatant was removed, and 100 µL of CAMHB containing two-fold serial dilutions of antimicrobials were added to each well. The plates were then incubated for an additional 24 h at 37 °C.
For each experiment, two sets of plates were prepared: one for biofilm quantification using the crystal violet (CV) staining method described earlier, and another to assess bacterial cell viability within the biofilm using the MTT assay (3-(4,5-dimethylthiazol-2-yl)-2,5-diphenyltetrazolium bromide). To perform the MTT assay, the medium was carefully removed, and biofilms were washed three times with 200 µL of saline solution. Subsequently, 100 µL of a 0.05% (w/v) MTT solution was added to each well, and the plates were incubated in the dark at 37 °C for 3 h.
Following incubation, the supernatant was discarded, and the resulting formazan crystals were dissolved in 100 µL of DMSO. The samples were then homogenized by orbital shaking for 10 min. Finally, absorbance was measured at 570 nm using a microplate reader. […]
The proportion of live and dead bacteria was determined by analyzing three representative images from each biofilm sample using the ImageJ software 1.52v with the FIJI plugin.

human erythrocytes = conditions: cited from earlier work
Procedure: Peptide 6.2 (P6.2) is a de novo designed antimicrobial peptide, with an amphipathic alfa helical structure. […] These findings are also in accordance with the previous results obtained for toxicity by hemolytic activity (hemolysis below 5% until 128 µg/mL).

[2] = system: P. aeruginosa strain PA01; conditions: sub-MIC concentrations, reference strain PAO1; cited from earlier work
Text: Biofilms are complex bacterial communities characterized by extensive intercellular interactions. Biofilm-associated bacteria, including P. aeruginosa, are commonly implicated in chronic infections that can persist for years. As such, managing biofilm-associated infections has become a critical focus in antimicrobial therapy, given their resistance to conventional antibiotic concentrations.

[3] = system: Pseudomonas aeruginosa M13513; assay: MIC by broth microdilution (CLSI); format: cell-based; conditions: CAMHB, two consecutive values shown where replicates varied by one dilution
Text: Pseudomonas aeruginosa M13513 is a clinical isolate carrying the carbapenemase KPC-2 (blaKPC-2 gene). This strain was generously supplied by the Servicio Antimicrobianos, Instituto Nacional de Enfermedades Infecciosas (INEI)-ANLIS “Dr. Carlos G. Malbrán” in Buenos Aires, Argentina.
For antimicrobial testing, bacterial cultures were maintained in Cation-Adjusted Mueller–Hinton Broth (CAMHB), following Clinical and Laboratory Standards Institute (CLSI) guidelines.
The minimal inhibitory concentration was assessed using a standard microdilution assay, following CLSI guidelines. Mueller–Hinton Broth (Laboratorios Britania S.A., Buenos Aires, Argentina) supplemented with Ca^2+ (20–25 mg/L) and Mg^2+ (10–12.5 mg/L) was used for the assay. The bacterial strains tested included Pseudomonas aeruginosa PAO1, Pseudomonas aeruginosa M13513, and Staphylococcus aureus ATCC® 25923.

[4] = system: A549 (human lung adenocarcinoma, ATCC CCL-185); format: cell-based
Procedure: (§1) The toxic effect was evaluated indirectly using the colorimetric MTT assay (3-[4,5-dimethylthiazol-2-yl]-2,5-diphenyl tetrazolium bromide, Thermo Fisher Scientific Inc, Massachusetts, USA) on A549 (human lung adenocarcinoma, ATCC CCL-185) and RAW 264.7 (murine macrophage-like ATCC TIB-71) cell lines. Cell lines were kindly provided by Instituto de Virología e Innovaciones Tecnológicas (IVIT), (INTA-CONICET, Buenos Aires, Argentina).
(§2) For the assay, A549 cells were seeded in 96-well plates at a density of 1 × 10^4 cells per well, while RAW 264.7 cells were seeded at a density of 5 × 10^4 cells per well. The plates were incubated for 24 h at 37 °C with 5% CO^2 to allow cell adhesion. The peptide P6.2 was dissolved in distilled water at a stock concentration of 10.24 mg/mL, and serial dilutions were made in RPMI-1640 medium supplemented with 10% fetal bovine serum (FBS, Internegocios S.A., Mercedes, Argentina). The concentrations used to assess P6.2 toxicity were the same as those previously employed in bacterial studies to determine the minimum inhibitory concentration (MIC) in antimicrobial activity assays. For the A549 cell line, P6.2 concentrations ranged from 4 µg/mL to 1024 µg/mL using serial dilutions in culture medium. For the RAW 264.7 cells, P6.2 concentrations ranged from 256 µg/mL to 8 µg/mL, with the concentration range adjusted based on preliminary results obtained from the A549 cell line.
(§3) Peptides were added and plates were incubated for 24 h at 37 °C in a 5% CO2 atmosphere. After incubation, the culture medium was removed, and the cells were washed with PBS (Phosphate Buffered Saline pH 7.2) to remove any remnants of the treatments. Next, 100 µL of MTT solution (0.5 mg/mL in PBS) was added to each well, and the plates were incubated for 0.5 to 3 h at 37 °C. During this period, viable cells reduced MTT, forming visible formazan crystals under a light field microscope (Zeiss Primovent, Oberkochen, Germany), indicating the cell metabolism of the compound.
(§4) At the end of the incubation, the supernatant was removed, and 200 µL of DMSO was added to each well to dissolve the formazan crystals. The plates were shaken to homogenize the contents, and absorbance was measured at 570 nm using a microplate reader (RT2100, Rayto Life and Analytical Sciences Co., Ltd, Shenzhen, China). Triplicates were run for each treatment. Cell viability was calculated by setting the absorbance value obtained for untreated control cells as 100% viability.

[5] = system: RAW 264.7 (murine macrophage-like ATCC TIB-71); format: cell-based
Procedure: as §1, §2, §3, §4

## GLLRKWGKKWKEFLRRVWK-NH2 [Peptide P6.2]
[1]
  effect in murine acute lung infection model: anti-inflammatory effects
P. aeruginosa M13513; MTT assay, confirmed by SYTO9/PI confocal microscopy
  bacterial viability inside the pre-formed biofilm: significantly decreased the bacterial viability inside the biofilm
P. aeruginosa M13513; crystal violet, 24 h treatment
  pre-formed biofilm mass: diminished the biofilm mass
Human erythrocytes
  erythrocytes lysis: less than 10%
[2]
  anti-biofilm activity: did not display anti-biofilm activity
[3]
  MIC: 32/64
[4]
  LogCC50: 2.100
[4]; 24 h
  CC50 (cytotoxic concentration 50%): 125.8 µg/mL
[5]
  LogCC50: 2.188
[5]; 24 h
  CC50 (cytotoxic concentration 50%): 154.1 µg/mL
